Test results published in patent publication US20110311601A1, “ANTIMICROBIAL MEDICAL DEVICES” (priority 2010, published 2011).
Where no end group is shown, it is not given here.

Experiments:
[1] = test system: Escherichia coli strain DB3.1; test: micro-dilution assay of coated titanium pins and peptide controls (bacterial killing, CFU); format: cell-based
Experimental: In a first experiment 10 μg of hβD2 was coated to three different SAM Hexadecyltrimethoxysilane (SAM 1), Dimethoxymethyloctylsilane (SAM 2), and oxidized Allyltrimethoxysilane (SAM 3) of the modified titanium pins. The anti-bacterial activity of the hβD2-coated pins was tested by a micro-dilution assay. Therefore, Escherichia coli strain DB3.1 (Invitrogen, Cat. No. 11782-018) was used. E. coli was streaked from a glycerol stock onto a Brain Heart Infusion (BHI) agar plate (3.7% (w/v) BHI Bouillon, 1.5% (w/v) Agar), grown overnight at 37° C. and subsequently used to inoculate 40 ml of 3.7% (w/v) BHI Bouillon without any antibiotics in 100 ml flasks. Fresh cells were harvested by centrifugation at 16000 rpm for 10 min and washed twice with 10 mM sodium phosphate buffer, pH 7.2. The optical density was adjusted to 10^4 cells/ml. For anti-bacterial testing, a single pin coated with hβD2 was incubated in one well of a microtiter plate containing 100 μl of the bacterial suspension.
Functionalized titanium pins without hβD2 served as negative controls (SAM1-n, SAM2-n, SAM3-n, SAM4::Col-NHS-n, SAM4::Col-Glu-n). In addition, 5 independent control reactions consisting of hβD2 in a final amount of 0 (NC), 0.02 (PC1), 0.2 (PC2), 2 (PC3) and 10 (PC4) μg were examined in parallel. To determine the specificity of the anti-bacterial activity of hβD2, 10 μl (10 μg/ml in PBS) of polyclonal monospecific anti-hβD2 antibodies were co-incubated with 10 μg of hβD2 and bacterial cells (Table I, PC4/ab).
The microtiter plates were incubated for 2 h at 37° C. The kinetic studies were performed by replacing the bacterial suspension, after 2 h of cultivation with a freshly pre-cultured E. coli solution, which contained the same bacterial concentration, and cultivating for another 2 h and so on. Colony forming units (CFU) were determined after plating 100 μl of a 1:100 dilution of the bacterial suspension on petri dishes with BHI medium and incubating them overnight at 37° C. For every group of the functionalized titanium pins and the controls, 5 independent anti-bacterial assays were performed. A control (NC) of bacterial growth was examined for every independent assay. The number of CFU on the control (consisting of a single petri dish) was set to 0% bactericidal activity. The reduction in the CFU resulting from the anti-bacterial activity of hβD2 was related to the absolute CFU of the control within every independent assay. This value, given as a percentage of the bacterial “killing” activity, was used to describe the antibacterial activity. This kind of normalisation of the antibacterial data was performed for every experimental group.
To examine the release behavior of hβD2 that is adsorbed by different SAM modified titanium pins a time kinetic experiment was performed. The experiment was performed analogous to Example 2. For this experiment 80 μg of hβD2 was adsorbed to three different SAMs Hexadecyltrimethoxysilane (SAM1), Dimethoxymethyloctylsilane (SAM2), and oxidized Allyltrimethoxysilane (SAM3) of the modified titanium pins.
Since it is known that collagen has a positive impact on wound healing, functionalised titanium pins with collagen were investigated. Two different cross-linking strategies for collagen on SAM3 and SAM4 were applied as described in Example 1: (i) a covalently binding strategy with the NHS/EDC cross-linking system, and (ii) the use of glutaraldehyde. Successful binding of collagen was monitored by collagen-specific DirectRed staining (as described in Example 1). […] Additionally 80 μg hβD2 was adsorbed to collagen functionalized SAM3 and SAM4 modified titanium pins, respectively. For monitoring the antibacterial activity of the bio-coated pins the experiment was performed analogous to Example 3. […]

[2] = test system: Stahylococcus aureus ATCC 12600; test: micro-dilution assay (MBC, LD90); format: cell-based, Staphylococcus aureus
Experimental: The anti-bacterial activity of hβD2 was tested by a micro-dilution assay. Bacteria and fungi were streaked from a glycerol stock onto a Brain Heart Infusion (BHI) agar plate (3.7% w/v BHI Bouillon, 1.5% w/v Agar), grown overnight at 37° C. and 30° C., respectively and subsequently used to inoculate 40 ml of 3.7% w/v BHI Bouillon without any antibiotics in 100 ml flasks. Fresh cells were harvested by centrifugation at 16000 rpm for 10 min and washed twice with 10 mM sodium phosphate buffer, pH 7.2. The optical density was adjusted to 10^4 cells/ml. For anti-bacterial testing hβD2 was incubated in one well of a microtiter plate containing 100 μl of the bacterial suspension. Therefore, ten microlitres of hβD2 solution with a range of final concentrations tested from 0.0125 up to and including 100 mg/l was added to the bacterial suspension and incubated at 37° C. and 30° C., respectively for 2 h before colony forming units were determined. Colony forming units (CFU) were determined after plating 100 μl of a 1:100 dilution of the bacterial suspension on petri dishes with BHI medium and incubating them overnight at 37° C. For every group of the hβD2 added samples and the controls, 5 independent anti-bacterial assays were performed. A control (NC) of bacterial growth was examined for every independent assay. […]

## human β-defensin-2 (GIGDPVTCLKSGAICHPVFCPRRYKQIGTCGLPGTKCCKKP; ends and bridges not checked; cysteine pairing not given here) [hβD2, recombinant hβD2]
[1]; control PC1: 0.02 μg rHuβD2, 2 h
  antmicrobial activity, bacterial killing [%]: 14.80 ± 2.78%
[1]; control PC2: 0.20 μg rHuβD2, 2 h
  antmicrobial activity, bacterial killing [%]: 32.38 ± 2.93%
[1]; control PC3: 2.00 μg rHuβD2, 2 h
  antmicrobial activity, bacterial killing [%]: 92.80 ± 3.91%
[1]; control PC4/ab: 10.00 μg rHuβD2 co-incubated with polyclonal anti-hβD2 antibodies, 2 h
  antmicrobial activity, bacterial killing [%]: 0%
[1]; control PC4: 10.00 μg rHuβD2, 2 h
  antmicrobial activity, bacterial killing [%]: 100%
[2]
  LD 90 = μg/ml 90% killing: 25 µg/mL
  MBC = μg/ml 99.9% killing: 100 µg/mL
